Experimental findings from paper PMC6339567 (Analytical chemistry, 2018) are described below.

A value given as a limit tells only on which side of the number the result lay.

Data set [1] concerns the target P-gp (Mus musculus, UniProt P21447). Briefly: in vitro.
Data set [2] in a line: in vitro. The settings on record: mouse.
Data set [3] has as its system confluent monolayers of primary murine colonic epithelial cells. The note with it: Figure 4A.
For data set [4] the test system is unchanged. Format: in vitro ADME, mouse. The note with it: upper bound for all monolayers with TEER >300 Ω cm^2 (n=6).

Sequence of P-gp (P21447 whole entry): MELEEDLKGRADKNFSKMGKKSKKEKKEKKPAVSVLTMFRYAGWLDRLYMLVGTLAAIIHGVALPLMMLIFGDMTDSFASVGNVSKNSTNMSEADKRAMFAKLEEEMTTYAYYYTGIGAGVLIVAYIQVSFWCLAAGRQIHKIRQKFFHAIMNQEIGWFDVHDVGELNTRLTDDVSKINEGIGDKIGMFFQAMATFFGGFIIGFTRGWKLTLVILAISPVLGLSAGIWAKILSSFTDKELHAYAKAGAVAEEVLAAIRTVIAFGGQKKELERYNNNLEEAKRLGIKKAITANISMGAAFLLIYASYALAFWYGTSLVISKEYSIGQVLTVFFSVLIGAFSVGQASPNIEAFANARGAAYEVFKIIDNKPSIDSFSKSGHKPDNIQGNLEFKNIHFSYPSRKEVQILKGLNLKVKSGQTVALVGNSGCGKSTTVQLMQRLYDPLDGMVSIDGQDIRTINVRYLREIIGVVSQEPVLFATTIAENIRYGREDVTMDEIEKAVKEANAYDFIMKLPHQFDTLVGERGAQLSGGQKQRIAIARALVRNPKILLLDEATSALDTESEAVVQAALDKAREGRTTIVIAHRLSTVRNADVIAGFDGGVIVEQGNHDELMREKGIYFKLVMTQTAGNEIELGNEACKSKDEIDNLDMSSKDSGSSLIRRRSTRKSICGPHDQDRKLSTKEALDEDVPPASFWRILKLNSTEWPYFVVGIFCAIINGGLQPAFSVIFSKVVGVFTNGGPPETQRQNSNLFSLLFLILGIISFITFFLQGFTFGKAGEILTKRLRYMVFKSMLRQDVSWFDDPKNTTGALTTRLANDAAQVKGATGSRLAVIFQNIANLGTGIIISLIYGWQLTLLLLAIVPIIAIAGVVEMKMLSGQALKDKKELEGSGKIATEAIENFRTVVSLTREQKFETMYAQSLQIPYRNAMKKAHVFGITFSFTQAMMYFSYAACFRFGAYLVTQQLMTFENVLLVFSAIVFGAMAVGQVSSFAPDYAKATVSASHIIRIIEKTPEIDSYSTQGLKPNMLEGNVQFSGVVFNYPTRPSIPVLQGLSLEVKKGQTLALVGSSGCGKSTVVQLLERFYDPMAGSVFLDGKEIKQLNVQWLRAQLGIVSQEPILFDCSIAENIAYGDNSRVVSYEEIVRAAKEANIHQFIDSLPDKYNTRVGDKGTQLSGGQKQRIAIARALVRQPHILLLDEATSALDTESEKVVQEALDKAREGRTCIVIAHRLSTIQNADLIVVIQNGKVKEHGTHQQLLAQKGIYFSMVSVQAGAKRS

Regarding `COC(=O)c1ccccc1-c1c2ccc(=N)cc-2oc2cc(N)ccc12` [Rh123, rhodamine 123], the efflux ratio – broadly, a quotient of directional permeabilities that is used to spot active efflux – at 2 h, 10 µM in data set [1] turned out to be 7.
For the compound `CC(C)NCC(O)COc1cccc2ccccc12` (stereo not shown) [propranolol], the Papp (commonly the rate of passage across a membrane or cell layer, normalised by area and donor concentration) at 3 h, 10 µM in data set [2] came to 9.69 ×10⁻⁶ cm/s. Further, the “permeability across day-5 monolayers (in words)” value in data set [3] is recorded as “high Papp”.
Consider lucifer yellow [LY], for which the “Papp for LY, all monolayers with TEER >300 Ω cm^2” value in data set [4] was < 4.5e-07 cm/s.
